These results are taken from patent US9622977B2, “Sustained release drug delivery system” (BIOPLUS LIFE SCIENCES PVT, LTD., priority 2008, dated 2017).

Series [1] can be described thus: In vitro drug release study of microspheres (USP paddle). The note with it: HCl buffer pH 1.2, first hr. It is filed as physicochemical. The procedure: 900 ml of HCl buffer (pH 1.2) was used as dissolution medium for first hr and phosphate buffered saline (PBS, pH 6.8) was used for next 11 hrs. The dried microspheres were filled in hard gelatin capsules and were placed in dissolution vessels. 5 ml sample was withdrawn at various time intervals and volume of the media was replenished with an equal amount of dissolution media. The samples were then analyzed spectroflurometrically.

A further series concerns Erythrocytes. Nature of the series: Hemolytic toxicity assay. The note with it: 1 hr of incubation at 37°C, water = 100%. It is filed as cell-based. Here is the method: The procedure from literature was followed to perform the hemolytic toxicity studies.^19 Blood from healthy donors was collected and anticogulated with 3% sodium citrate. Erythrocytes were separated from blood plasma by centrifugation (3000×g, 5 min) and suspended in phosphate buffer saline (PBS) of pH 7.4. […] 0.5 ml 2% w/v dispersion of microspheres formulations in PBS (pH 7.4) was added to 4.5 ml of normal saline and interacted with 1 ml RBC suspension. […] After 1 hr, mixture was centrifuged and supernatants were taken and diluted with an equal volume of normal saline and absorbance was taken at 540 nm against supernatant of normal saline diluted similarly as blank. The percentage hemolysis was thus determined for each sample by taking absorbance of water as 100% hemolytic sample.

The conditions of series [2]: Acyclovir IR 400 mg single dose; From Ref. 35; cited from earlier work.
The conditions of series [3]: oral; cited from earlier work.
The nature of the next series: in vivo. The note with it: Sprague-Dawley, rat, po.
The conditions of series [4]: rat; for % Dose recovered: 6-CF, oral.

Each structure is given as a SMILES string. Read-outs that look alike come from different tables or passages of the source.

Experimental for in vivo: Rats were kept on fasting 12 hours before drug administration and until 24 hours post dosing. Water ad libitum was given throughout the study. […] Second, third, fourth, fifth and sixth group received oral administration of chitosan, thiolated chitosan, trimethyl chitosan, CARBOPOL® or METHOCEL® microspheres, respectively. […] Supernatant was collected and acetonitrile was added to precipitate the proteins. The precipitated proteins were settled by centrifugation at 2000 rpm for 15 min. The supernatant was collected and filtered through a 0.45 μm filter into volumetric flask and drug concentration was determined by spectrofluorometric assay.

On to `Nc1nc2c(ncn2COCCO)c(=O)[nH]1` [Acyclovir], for which the “% drug released in first 1 hr” value in series [1] is 95.3±4.1%. For the same compound, the “% Hemolysis” value in the series on Erythrocytes amounted to 10.2 ± 1.4%. Also, in series [2], the “Area under plasma concentration profile (AUC)” value was 3307.5 ng·h/mL and the “Time to maximum plasma concentration (tmax)” value is given as 1.4 h. In addition, the bioavailability in series [3] is 10-20%. The AUC in the series “in vivo” was 282 ± 28 ng·h/mL. For the same compound, in “in vivo” (5 mg/kg), the highest level (Cmax) was 53.1 ± 6.8 ng/mL, the MRT stood at 5.4 ± 0.5 h and the bioavailability turned out to be 100%.

As to `O=C(O)c1ccc2c(c1)C1(OC2=O)c2ccc(O)cc2Oc2cc(O)ccc21` [6-CF solution, 6-Carboxyfluorescein], the “% Dose recovered” value in series [4] (1. Stomach, 2 hr) is recorded as 52.2%; in series [4] (1. Stomach, 6 hr), 0%; in series [4] (1. Stomach, 8 hr) it was 0%; in series [4] (1. Stomach, 10 hr), 0%; in series [4] (2. Duodenum, 2 hr) it was 10.9%; in series [4] (2. Duodenum, 4 hr) it was 19.5%. The “% Dose recovered” value is given as 0% in series [4] (2. Duodenum, 6 hr); 0% in series [4] (2. Duodenum, 8 hr); 0% in series [4] (2. Duodenum, 10 hr); 0% in series [4] (3. Jejunum, 2 hr); 10.6% in series [4] (3. Jejunum, 4 hr); 0% in series [4] (3. Jejunum, 6 hr). For the same compound, the “% Dose recovered” value in series [4] (3. Jejunum, 8 hr) turned out to be 0%; in series [4] (3. Jejunum, 10 hr), 0%; in series [4] (4. Jejunum, 2 hr), 0%; in series [4] (4. Jejunum, 4 hr), 5.8%; in series [4] (4. Jejunum, 6 hr) it was 6.9%; in series [4] (4. Jejunum, 8 hr), 0%. The “% Dose recovered” value is listed as 0% in series [4] (4. Jejunum, 10 hr); 0% in series [4] (5. Jejunum, 2 hr); 0% in series [4] (5. Jejunum, 4 hr); 3.9% in series [4] (5. Jejunum, 6 hr); 0% in series [4] (5. Jejunum, 8 hr); 0% in series [4] (5. Jejunum, 10 hr). In addition, the “% Dose recovered” value in series [4] (6. Ileum, 2 hr) is on record as 0%; in series [4] (6. Ileum, 4 hr) it was 0%; in series [4] (6. Ileum, 6 hr) it was 0%; in series [4] (6. Ileum, 8 hr) it was 5.9%; in series [4] (6. Ileum, 10 hr), 0%; in series [4] (7. Remaining Intestine, 2 hr), 0%. For the same compound, the “% Dose recovered” value in series [4] (7. Remaining Intestine, 4 hr) amounted to 0%; in series [4] (7. Remaining Intestine, 6 hr) it was 0%; in series [4] (7. Remaining Intestine, 8 hr) it was 0%; in series [4] (7. Remaining Intestine, 10 hr), 0%. The “% recovered from stomach following oral administration” value in series [4] (time not stated) is “more than 30%”.

For `Cn1c(=O)c2[nH]cnc2n(C)c1=O` [theophylline], in series [3], the bioavailability is on record as 100%.
